Measured values as given in ChEMBL document CHEMBL3352679, “Structure and evaluation of antibacterial and antitubercular properties of new basic and heterocyclic 3-formylrifamycin SV derivatives obtained via 'click chemistry' approach” (Eur J Med Chem, 2014).
≈ marks a conversion by molar mass, not a printed value.

Tests used:
[1] = tested on: Staphylococcus epidermidis; assay: Antibacterial activity against Staphylococcus epidermidis ATCC 12228 after 18 hrs by serial microdilution method; type: functional; settings: ATCC 12228, 18 h
[2] = tested on: Mycobacterium tuberculosis; assay: Antituberculosis activity against Mycobacterium tuberculosis H37Rv after 7 days by serial two fold dilution method; type: functional; settings: 168 h
Staphylococcus aureus [3] = assay: Antibacterial activity against Staphylococcus aureus ATCC 6538 after 18 hrs by serial microdilution method; type: functional; settings: ATCC 6538, 18 h
Enterococcus faecalis = assay: Antibacterial activity against Enterococcus faecalis ATCC 19433 after 18 hrs by serial microdilution method; type: functional; settings: ATCC 19433, 18 h
[4] = Solubility in water at pH 7 and 25 degC by UV-vis spectrophotometry; type: physicochemical
[5] = tested on: Salmonella enterica subsp. enterica serovar Abony; assay: Antibacterial activity against Salmonella abony NCTC 6017 after 18 hrs by serial microdilution method; type: functional; settings: NCTC 6017, 18 h
[6] = tested on: Staphylococcus epidermidis; assay: Antibacterial activity against Staphylococcus epidermidis ATCC 49134 after 18 hrs by serial microdilution method; type: functional; settings: ATCC 49134, 18 h
Staphylococcus aureus [7] = assay: Antibacterial activity against Staphylococcus aureus ATCC 25923 after 18 hrs by serial microdilution method; type: functional; settings: ATCC 25923, 18 h
Staphylococcus aureus [8] = assay: Antibacterial activity against Staphylococcus aureus ATCC 4163 after 18 hrs by serial microdilution method; type: functional; settings: ATCC 4163, 18 h
Escherichia coli = assay: Antibacterial activity against Escherichia coli ATCC 10538 after 18 hrs by serial microdilution method; type: functional; settings: ATCC 10538, 18 h
[9] = Octanol-water partition coefficient, log P of the compound; type: physicochemical
Candida albicans = assay: Antifungal activity against Candida albicans ATCC 10231 after 18 hrs by serial microdilution method; type: functional; settings: ATCC 10231, 18 h
Trichophyton rubrum = assay: Antifungal activity against Trichophyton rubrum ATCC 28188 after 18 hrs by serial microdilution method; type: functional; settings: ATCC 28188, 18 h

| SMILES | MIC [1] [µg/mL] | MIC [2] [µg/mL] | MIC (Staphylococcus aureus [3]) [µg/mL] | MIC (Enterococcus faecalis) [µg/mL] | solubility [4] [µg/mL] | MIC [5] [µg/mL] | MIC [6] [µg/mL] | MIC (Staphylococcus aureus [7]) [µg/mL] | MIC (Staphylococcus aureus [8]) [µg/mL] | MIC (Escherichia coli) [µg/mL] | logP [9] | MIC (Candida albicans) [µg/mL] | MIC (Trichophyton rubrum) [µg/mL] |
| --- | --- | --- | --- | --- | --- | --- | --- | --- | --- | --- | --- | --- | --- |
| CCCCCc1cn(CCCNCc2c3c(O)c4c(O)c(C)c5c(c4c2O)C(=O)[C@@](C)(O/C=C/[C@H](OC)[C@@H](C)[C@@H](OC(C)=O)[C@H](C)[C@H](O)[C@H](C)[C@@H](O)[C@@H](C)/C=C/C=C(/C)C(=O)N3)O5)nn1 | 0.5 (≈ 0.552 µM) | 0.5 (≈ 0.552 µM) | 1 (≈ 1.1 µM) | > 1 | < 10 | > 1 | 0.5 (≈ 0.552 µM) | > 1 | 1 (≈ 1.1 µM) | > 1 | 3.42 | > 1 | > 1 |
| CCCCCc1cn(CCCN2Cc3c4c(O)c5c(O)c(C)c6c(c5c3O)C(=O)[C@@](C)(O/C=C/[C@H](OC)[C@@H](C)[C@@H](OC(C)=O)[C@H](C)[C@H](O)[C@H](C)[C@@H](O)[C@@H](C)/C=C/C=C(/C)C2=N4)O6)nn1 | > 1 | 1 (≈ 1.13 µM) | > 1 | > 1 | < 10 | > 1 | > 1 | > 1 | 1 (≈ 1.13 µM) | > 1 | 4.47 | > 1 | > 1 |
| CO[C@H]1/C=C/O[C@@]2(C)Oc3c(C)c(O)c4c(O)c(c(CNCCN5CCCC5)c(O)c4c3C2=O)NC(=O)/C(C)=C\C=C\[C@H](C)[C@H](O)[C@@H](C)[C@@H](O)[C@@H](C)[C@H](OC(C)=O)[C@@H]1C | 0.5 (≈ 0.607 µM) | 0.5 (≈ 0.607 µM) | 1 (≈ 1.21 µM) | 1 (≈ 1.21 µM) | 240 (≈ 291 µM) | 1 (≈ 1.21 µM) | 0.5 (≈ 0.607 µM) | 1 (≈ 1.21 µM) | 1 (≈ 1.21 µM) | 1 (≈ 1.21 µM) | 1.55 | 1 (≈ 1.21 µM) | 1 (≈ 1.21 µM) |
| CO[C@H]1/C=C/O[C@@]2(C)Oc3c(C)c(O)c4c(O)c(c(C=O)c(O)c4c3C2=O)NC(=O)/C(C)=C\C=C\[C@H](C)[C@H](O)[C@@H](C)[C@@H](O)[C@@H](C)[C@H](OC(C)=O)[C@@H]1C | > 1 | > 1 | > 1 | > 1 | 100 (≈ 138 µM) | > 1 | > 1 | > 1 | > 1 | > 1 | 1.71 | > 1 | > 1 |
| CCCc1cn(CCN2Cc3c4c(O)c5c(O)c(C)c6c(c5c3O)C(=O)[C@@](C)(O/C=C/[C@H](OC)[C@@H](C)[C@@H](OC(C)=O)[C@H](C)[C@H](O)[C@H](C)[C@@H](O)[C@@H](C)/C=C/C=C(/C)C2=N4)O6)nn1 | > 1 | 1 (≈ 1.18 µM) | > 1 | > 1 | < 10 | > 1 | > 1 | > 1 | 1 (≈ 1.18 µM) | > 1 | 3.13 | > 1 | > 1 |
| CCCc1cn(CCNCc2c3c(O)c4c(O)c(C)c5c(c4c2O)C(=O)[C@@](C)(O/C=C/[C@H](OC)[C@@H](C)[C@@H](OC(C)=O)[C@H](C)[C@H](O)[C@H](C)[C@@H](O)[C@@H](C)/C=C/C=C(/C)C(=O)N3)O5)nn1 | 0.5 (≈ 0.579 µM) | 1 (≈ 1.16 µM) | 1 (≈ 1.16 µM) | > 1 | < 10 | > 1 | 0.5 (≈ 0.579 µM) | > 1 | 1 (≈ 1.16 µM) | > 1 | 2.14 | > 1 | > 1 |
| CO[C@H]1/C=C/O[C@@]2(C)Oc3c(C)c(O)c4c(O)c(c(/C=N/N5CCN(C)CC5)c(O)c4c3C2=O)NC(=O)/C(C)=C\C=C\[C@H](C)[C@H](O)[C@@H](C)[C@@H](O)[C@@H](C)[C@H](OC(C)=O)[C@@H]1C [RIFAMPIN] | 0.004 (≈ 0.00486 µM) | 0.005 (≈ 0.00608 µM) | 0.008 (≈ 0.00972 µM) | 1 (≈ 1.22 µM) | – | > 1 | 0.004 (≈ 0.00486 µM) | 0.016 (≈ 0.0194 µM) | 0.008 (≈ 0.00972 µM) | > 1 | 1.66 | > 1 | > 1 |
| CO[C@H]1/C=C/O[C@@]2(C)Oc3c(C)c(O)c4c(O)c(c(CNC5CCN(Cc6ccccc6)CC5)c(O)c4c3C2=O)NC(=O)/C(C)=C\C=C\[C@H](C)[C@H](O)[C@@H](C)[C@@H](O)[C@@H](C)[C@H](OC(C)=O)[C@@H]1C | 0.25 (≈ 0.278 µM) | 0.005 (≈ 0.00556 µM) | 0.25 (≈ 0.278 µM) | > 1 | < 10 | > 1 | 0.25 (≈ 0.278 µM) | 0.25 (≈ 0.278 µM) | 0.25 (≈ 0.278 µM) | > 1 | 3.25 | > 1 | > 1 |
| CO[C@H]1/C=C/O[C@@]2(C)Oc3c(C)c(O)c4c(O)c(c(CNCCCN5CCCC5)c(O)c4c3C2=O)NC(=O)/C(C)=C\C=C\[C@H](C)[C@H](O)[C@@H](C)[C@@H](O)[C@@H](C)[C@H](OC(C)=O)[C@@H]1C | 0.5 (≈ 0.597 µM) | 0.5 (≈ 0.597 µM) | 0.5 (≈ 0.597 µM) | > 1 | 240 (≈ 286 µM) | > 1 | 0.25 (≈ 0.298 µM) | 1 (≈ 1.19 µM) | 0.5 (≈ 0.597 µM) | > 1 | 2.04 | > 1 | > 1 |
| CO[C@H]1/C=C/O[C@@]2(C)Oc3c(C)c(O)c4c(O)c(c(CNCc5cn(CN6C(=O)c7ccccc7C6=O)nn5)c(O)c4c3C2=O)NC(=O)/C(C)=C\C=C\[C@H](C)[C@H](O)[C@@H](C)[C@@H](O)[C@@H](C)[C@H](OC(C)=O)[C@@H]1C | 0.5 (≈ 0.517 µM) | 0.25 (≈ 0.259 µM) | 1 (≈ 1.03 µM) | > 1 | < 10 | > 1 | 0.5 (≈ 0.517 µM) | > 1 | 1 (≈ 1.03 µM) | > 1 | 2.24 | > 1 | > 1 |
| CO[C@H]1/C=C/O[C@@]2(C)Oc3c(C)c(O)c4c(O)c(c(CNCCCn5ccnc5)c(O)c4c3C2=O)NC(=O)/C(C)=C\C=C\[C@H](C)[C@H](O)[C@@H](C)[C@@H](O)[C@@H](C)[C@H](OC(C)=O)[C@@H]1C | 0.5 (≈ 0.599 µM) | 1 (≈ 1.2 µM) | 0.5 (≈ 0.599 µM) | > 1 | 330 (≈ 395 µM) | > 1 | 0.25 (≈ 0.299 µM) | 1 (≈ 1.2 µM) | 0.5 (≈ 0.599 µM) | > 1 | 1.78 | > 1 | > 1 |
| CO[C@H]1/C=C/O[C@@]2(C)Oc3c(C)c(O)c4c(O)c(c(CNCCCN5CCN(CCCNCc6c7c(O)c8c(O)c(C)c9c(c8c6O)C(=O)[C@@](C)(O/C=C/[C@H](OC)[C@@H](C)[C@@H](OC(C)=O)[C@H](C)[C@H](O)[C@H](C)[C@@H](O)[C@@H](C)/C=C/C=C(/C)C(=O)N7)O9)CC5)c(O)c4c3C2=O)NC(=O)/C(C)=C\C=C\[C@H](C)[C@H](O)[C@@H](C)[C@@H](O)[C@@H](C)[C@H](OC(C)=O)[C@@H]1C | > 1 | > 1 | > 1 | > 1 | < 10 | > 1 | > 1 | > 1 | > 1 | > 1 | 3.83 | > 1 | > 1 |
| CO[C@H]1/C=C\O[C@@]2(C)Oc3c(C)c(O)c4c(O)c(c(CNC5CCN(Cc6ccccc6)CC5)c(O)c4c3C2=O)NC(=O)/C(C)=C\C=C/[C@H](C)[C@H](O)[C@@H](C)[C@@H](O)[C@@H](C)[C@H](OC(C)=O)[C@@H]1C | 0.06 (≈ 0.0667 µM) | 0.005 (≈ 0.00556 µM) | 0.125 (≈ 0.139 µM) | – | 150 (≈ 167 µM) | – | 0.03 (≈ 0.0333 µM) | 0.25 (≈ 0.278 µM) | 0.125 (≈ 0.139 µM) | – | 2.05 | – | – |
| CO[C@H]1/C=C/O[C@@]2(C)Oc3c(C)c(O)c4c(O)c5c(c(O)c4c3C2=O)CN(Cc2cn(CN3C(=O)c4ccccc4C3=O)nn2)C(=N5)/C(C)=C\C=C\[C@H](C)[C@H](O)[C@@H](C)[C@@H](O)[C@@H](C)[C@H](OC(C)=O)[C@@H]1C | > 1 | 0.5 (≈ 0.527 µM) | > 1 | > 1 | < 10 | > 1 | > 1 | > 1 | 1 (≈ 1.05 µM) | > 1 | 3.26 | > 1 | > 1 |
| CO[C@H]1/C=C/O[C@@]2(C)Oc3c(C)c(O)c4c(O)c(c(CNCCN(C)C)c(O)c4c3C2=O)NC(=O)/C(C)=C\C=C\[C@H](C)[C@H](O)[C@@H](C)[C@@H](O)[C@@H](C)[C@H](OC(C)=O)[C@@H]1C | 0.5 (≈ 0.627 µM) | > 1 | 1 (≈ 1.25 µM) | > 1 | 320 (≈ 401 µM) | > 1 | 0.5 (≈ 0.627 µM) | > 1 | 1 (≈ 1.25 µM) | > 1 | 1.48 | > 1 | > 1 |
